Reference: patent US20220370453A1 (Storm Therapeutics Ltd, priority 2019, published 2022)
pIC50: −log10 of the molar value.

How the values were obtained:
BCDIN3D [1] = molecular target: T1, BCDIN3D (Homo sapiens, UniProt Q7Z5W3); experiment: BCDIN3D IC50 RFMS (RapidFire) assay with mini-helix; assay type: biochemical; conditions: mini-helix substrate 0.2 μM, SAM 6 μM, 25 nM enzyme
T1 sequence (Q7Z5W3 1-292): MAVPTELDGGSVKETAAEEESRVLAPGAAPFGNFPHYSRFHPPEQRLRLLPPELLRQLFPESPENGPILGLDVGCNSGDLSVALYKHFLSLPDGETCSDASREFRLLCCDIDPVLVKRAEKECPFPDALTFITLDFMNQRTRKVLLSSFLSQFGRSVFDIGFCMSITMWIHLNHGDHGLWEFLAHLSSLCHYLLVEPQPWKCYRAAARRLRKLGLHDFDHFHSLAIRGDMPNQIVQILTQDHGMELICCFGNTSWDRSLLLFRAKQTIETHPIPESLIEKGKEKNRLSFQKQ
Outline: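 SAH formation was measured by RapidFire mass spectrometry with D4- and 13C10-SAH internal standards after TCA quench. Substrates 6 μM SAM and 0.2 μM mini-helix reacted 1 h at 37 °C with 25 nM enzyme, which had been preincubated 10 min with compound (1% DMSO) in Tris pH 8.0 buffer with DTT, EDTA, BSA.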

BCDIN3D [2] = molecular target: T1, BCDIN3D; experiment: BCDIN3D InCellPulse thermal stability assay in transfected A549 cells; assay type: cell-based; conditions: transiently transfected A549 cells, heat shock 58° C. 15 min
Outline: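 Thermal stabilisation read-out: after a 15 min 58 °C heat shock, ePL-tagged BCDIN3D in transiently transfected A549 cells (1500/well) was quantified by enzyme-fragment complementation luminescence. Compounds were pre-incubated with cells 1 h at 37 °C, 0.6% DMSO final.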

Row | SMILES | pIC50 (BCDIN3D [1]) | pIC50 (BCDIN3D [2])
1 | Cn1ncc2c(NC3CC4(C3)CC(F)(F)C4)nc(NCC(N)c3ccccc3)nc21 (stereo not shown) [Compound 4.82, N6-(2-amino-2-phenyl-ethyl)-N4-(2,2-difluorospiro[3.3]heptan-6-yl)-1-methyl-pyrazolo[3,4-d]pyrimidine-4,6-diamine] | 7.59 | 7.39
2 | Cn1ncc2c(NC3CCC3)nc(NC[C@H](N)c3ccccc3)nc21 [Compound 4.83, N6-[(2R)-2-amino-2-phenyl-ethyl]-N4-cyclobutyl-1-methyl-pyrazolo[3,4-d]pyrimidine-4,6-diamine] | 7.12 | 7.03
3 | Cn1ncc2c(NC3(C)CCC3)nc(NC[C@H](N)c3ccccc3)nc21 [Compound 4.84, N6-[(2R)-2-amino-2-phenyl-ethyl]-1-methyl-N4-(1-methylcyclobutyl)pyrazolo[3,4-d]pyrimidine-4,6-diamine] | 6.86 | 6.90
4 | Cn1ncc2c(NC3CC(F)(F)C3)nc(NC[C@H](N)c3ccccc3)nc21 [Compound 4.85, N6-[(2R)-2-amino-2-phenyl-ethyl]-N4-(3,3-difluorocyclobutyl)-1-methyl-pyrazolo[3,4-d]pyrimidine-4,6-diamine] | 6.76 | 6.57
5 | Cn1ncc2c(NC3(C)CC(F)(F)C3)nc(NC[C@H](N)c3ccccc3)nc21 [Compound 4.86, N6-[(2R)-2-amino-2-phenyl-ethyl]-N4-(3,3-difluoro-1-methyl-cyclobutyl)-1-methyl-pyrazolo[3,4-d]pyrimidine-4,6-diamine] | 5.80 | 5.84
6 | CC1CC(Nc2nc(NC[C@H](N)c3ccccc3)nc3c2cnn3C)C1 (stereo partly drawn) [Compound 4.87, N6-[(2R)-2-amino-2-phenyl-ethyl]-1-methyl-N4-(3-methylcyclobutyl)pyrazolo[3,4-d]pyrimidine-4,6-diamine] | 7.29 | 7.15
7 | Cn1ncc2c(NC3CC(F)C3)nc(NC[C@H](N)c3ccccc3)nc21 (stereo partly drawn) [Compound 4.88, N6-[(2R)-2-amino-2-phenyl-ethyl]-N4-(3-fluorocyclobutyl)-1-methyl-pyrazolo[3,4-d]pyrimidine-4,6-diamine] | 6.95 | 6.83
8 | Cn1ncc2c(N[C@H]3C[C@H](F)C3)nc(NC[C@H](N)c3ccccc3)nc21 [Compound 4.89, N6-[(2R)-2-amino-2-phenyl-ethyl]-N4-(3-fluorocyclobutyl)-1-methyl-pyrazolo[3,4-d]pyrimidine-4,6-diamine] | 6.96 | 6.65
9 | Cn1ncc2c(N[C@H]3C[C@@H](F)C3)nc(NC[C@H](N)c3ccccc3)nc21 [Compound 4.90, N6-[(2R)-2-amino-2-phenyl-ethyl]-N4-(3-fluorocyclobutyl)-1-methyl-pyrazolo[3,4-d]pyrimidine-4,6-diamine] | 6.24 | 6.00
10 | Cn1ncc2c(NC3CC(C#N)C3)nc(NC[C@H](N)c3ccccc3)nc21 (stereo partly drawn) [Compound 4.91, 3-[[6-[[(2R)-2-amino-2-phenyl-ethyl]amino]-1-methyl-pyrazolo[3,4-d]pyrimidin-4-yl]amino]cyclobutanecarbonitrile] | 6.89 | 6.58
11 | COC1CC(Nc2nc(NC[C@H](N)c3ccccc3)nc3c2cnn3C)C1 (stereo partly drawn) [Compound 4.92, N6-[(2R)-2-amino-2-phenyl-ethyl]-N4-(3-methoxycyclobutyl)-1-methyl-pyrazolo[3,4-d]pyrimidine-4,6-diamine] | 6.46 | 6.34
12 | Cn1ncc2c(NC3CC(Cl)(Cl)C3)nc(NC[C@H](N)c3ccccc3)nc21 [Compound 4.93, N6-[(2R)-2-amino-2-phenyl-ethyl]-N4-(3,3-dichlorocyclobutyl)-1-methyl-pyrazolo[3,4-d]pyrimidine-4,6-diamine] | 7.59 | 7.14
13 | Cn1ncc2c(NC3CC4(C3)CC(F)(F)C4)nc(NC[C@H](N)c3ccccc3)nc21 [Compound 4.94, N6-[(2R)-2-amino-2-phenyl-ethyl]-N4-(2,2-difluorospiro[3.3]heptan-6-yl)-1-methyl-pyrazolo[3,4-d]pyrimidine-4,6-diamine] | 8.21 | 7.33
14 | Cn1ncc2c(NC3CC4(COC4)C3)nc(NC[C@H](N)c3ccccc3)nc21 [Compound 4.95, N6-[(2R)-2-amino-2-phenyl-ethyl]-1-methyl-N4-(2-oxaspiro[3.3]heptan-6-yl)pyrazolo[3,4-d]pyrimidine-4,6-diamine] | 6.43 | 6.34
15 | Cn1ncc2c(NC3CC(C)(C)C3)nc(NC[C@H](N)c3ccccc3)nc21 [Compound 4.96, N6-[(2R)-2-amino-2-phenyl-ethyl]-N4-(3,3-dimethylcyclobutyl)-1-methyl-pyrazolo[3,4-d]pyrimidine-4,6-diamine] | 7.85 | 7.66
16 | Cn1ncc2c(NC3CC(C)(F)C3)nc(NC[C@H](N)c3ccccc3)nc21 (stereo partly drawn) [Compound 4.97, N6-[(2R)-2-amino-2-phenyl-ethyl]-N4-(3-fluoro-3-methyl-cyclobutyl)-1-methyl-pyrazolo[3,4-d]pyrimidine-4,6-diamine] | 7.07 | 6.75
17 | C[C@H](Nc1nc(NC[C@H](N)c2ccccc2)nc2c1cnn2C)C(F)(F)F [Compound 4.98, N6-[(2R)-2-amino-2-phenyl-ethyl]-1-methyl-N4-[(1S)-2,2,2-trifluoro-1-methyl-ethyl]pyrazolo[3,4-d]pyrimidine-4,6-diamine] | 6.87 | 6.63
18 | Cn1ncc2c(NC3CC4(CCC4)C3)nc(NC[C@H](N)c3ccccc3)nc21 [Compound 4.99, N6-[(2R)-2-amino-2-phenyl-ethyl]-1-methyl-N4-spiro[3.3]heptan-2-yl-pyrazolo[3,4-d]pyrimidine-4,6-diamine] | 8.10 | 7.77
19 | COCC(C)(C)Nc1nc(NC[C@H](N)c2ccccc2)nc2c1cnn2C [Compound 4.100, N6-[(2R)-2-amino-2-phenyl-ethyl]-N4-(2-methoxy-1,1-dimethyl-ethyl)-1-methyl-pyrazolo[3,4-d]pyrimidine-4,6-diamine] | 5.88 | 5.73
20 | CCC(C)(C)Nc1nc(NC[C@H](N)c2ccccc2)nc2c1cnn2C [Compound 4.101, N6-[(2R)-2-amino-2-phenyl-ethyl]-N4-(1,1-dimethylpropyl)-1-methyl-pyrazolo[3,4-d]pyrimidine-4,6-diamine] | 6.33 | 6.48
21 | C[C@H](Nc1nc(NC[C@H](N)c2ccccc2)nc2c1cnn2C)C1CC1 [Compound 4.102, N6-[(2R)-2-amino-2-phenyl-ethyl]-N4-[(1S)-1-cyclopropylethyl]-1-methyl-pyrazolo[3,4-d]pyrimidine-4,6-diamine] | 5.36 | 5.58
22 | CC(C)CNc1nc(NC[C@H](N)c2ccccc2)nc2c1cnn2C [Compound 4.103, N6-[(2R)-2-amino-2-phenyl-ethyl]-N4-isobutyl-1-methyl-pyrazolo[3,4-d]pyrimidine-4,6-diamine] | 6.49 | 6.32
23 | Cn1ncc2c(NCC3CC34CCC4)nc(NC[C@H](N)c3ccccc3)nc21 (stereo partly drawn) [Compound 4.104, N6-[(2R)-2-amino-2-phenyl-ethyl]-1-methyl-N4-(spiro[2.3]hexan-2-ylmethyl)pyrazolo[3,4-d]pyrimidine-4,6-diamine] | 7.55 | 7.25
